Results on four compounds are retold here after paper PMC5895880 (Frontiers in Pharmacology, 2018).

Broadly, the EC50 is the midpoint of the concentration-response curve.

Each structure is given as a SMILES string.

Experiment [1] concerns the target T1, mGluR5 (Rattus norvegicus, UniProt P31424). The experiment in a line: Inositol phosphate (phosphatidylinositol) turnover in rat hippocampus slices. The class given is cell-based. As to conditions: for EC50: rat hippocampus slices, read-out: EC50 of L-quisqualate, phosphatidylinositol turnover. How it is done: The experiments have been performed on rat hippocampus slices. This preparation expresses mGlu5Rs ([Zhang et al., 2005]; [Purgert et al., 2014]).
On the day of the experiment, the animals were euthanized, their brain promptly isolated and 400 μm thick slices (15–20 mg each) were obtained from both the left and right hippocampi, by using a McIlwain tissue Chopper fresh tissue. The tissue was then allowed to equilibrate for 20 min at room temperature in Krebs’ solution (composition in mM: NaCl 118; KC1 4.4; CaC1_2 1.2; MgS0_4 1.2; KH2P0_4 1.2; NaHC0_3 25; glucose 10) and gassed with a mixture of 95% O2 plus 5% CO2 ([Ferraro et al., 2011]).
Slices were placed in test tubes containing 0.3 ml of oxygenated Krebs solution with myo-[^3H]inositol 0.3 μM (NEN, Boston, MA, United States). […] The reaction was stopped by washing each slice in ice cold Krebs solution containing LiCl 10 mM and by plunging it in 0.94 ml of chloroform-methanol (1:2 v/v). After 10 min, 310 μl of chloroform and 310 μl of water were added and the tubes were shaken for 20 min. The separation of [^3H]inositol phosphates was performed by ion-exchange chromatography on AG 1-X8 resin, 200–400 mesh (Bio-Rad, Hercules, CA, United States), using different elution solutions. The collected IP3-containing fraction was mixed with Safety-Solve cocktail (RPI, Mount Prospect, IL, United States) and the radioactivity was measured by scintillation counting.
(§1) EC50 values were calculated using non-linear regression [curve fit, log(agonist) vs. response, variable slope, four parameters]. Statistical analysis (F-test) has been performed by using GraphPad Prism 6.0 (GraphPad Software Inc., San Diego, CA, United States). Statistical differences between group means for EC50 values were also assessed by ANOVA followed by Tukey’s multiple comparisons test. Data are reported as mean ± SEM of three independent experiments. A p-value < 0.05 was considered statistically significant.

Experiment [2] addresses T1, mGluR5. Nature of the experiment: pCREB (Ser133) levels in primary cultures of rat cortical neurons. The class given is cell-based. The conditions noted are these: rat cerebral cortex neurons. The protocol:
The experiments have been performed on primary cultures of rat cortical neurons. These cells express mGlu5Rs ([Koga et al., 2010]).
Primary cultures of cerebral cortical neurons were prepared from 1-day-old rats. Cortices free of meninges were dissociated in 0.025% (w/v) trypsin at 37°C followed by mechanical repeated gentle pipetting through wide- and narrow-bore fire-polished Pasteur pipettes in culture medium [Neurobasal medium (Gibco, Grand Island, NY, United States) supplemented with 0.1 mM glutamine (Sigma-Aldrich, Milan, Italy), 10 μg/ml gentamicin (Sigma-Aldrich, Milan, Italy) and 2% B-27® Supplement (50X), serum free (Gibco, Grand Island, NY, United States)]. Cells were counted and then plated on poly-L-lysine (5 μg/ml)-coated multiwells. Cytosine arabinoside (10 μM; Sigma-Aldrich, Milan, Italy) was added within 24 h of plating to prevent glial cell proliferation. After 8 days of in vitro incubation (days in vitro: DIV), cultures were used for experiments.
pCREB measurement was performed with the pCREB (Ser133) Assay kit (PerkinElmer Italy, Milan). Briefly, cortical neurons were seeded in 96 well tissue culture plates at a density of 4,000 cells/well and incubated at 37°C overnight. […] The lysates were transferred to a 96-well ½AreaPlate^TM for the assay. The Acceptor Mix was added for 1 h at room temperature and the Donor mix was added to wells under subdue light and incubate for 1 h at room temperature. At the end of this period, raw “AlphaScreen Signal counts” were measured by an Alpha Technology®-compatible plate reader, using standard AlphaLISA settings (excitation 680 nm, emission 615 nm).
as §1

For experiment [3], the target named is T1, mGluR5. The experiment in a line: Calcium mobilization (intracellular calcium levels) in primary cultures of rat cortical astrocytes. It is filed as cell-based. As to conditions: GET73 0 (absence). The protocol: The experiments have been performed on primary cultures of rat cortical astrocytes. These cells express mGlu5Rs ([Zhang et al., 2005]).
Primary cultures of cerebral cortical astrocytes were obtained from newborn rats (1 or 2 days old). Briefly, cerebral cortices were removed and dissociated by mild trypsinization at 37°C, followed by mechanical trituration to obtain single cells. Cells were suspended in the culture medium [Gibco® DMEM, 5% inactivated fetal bovine serum (Thermo-Fisher Scientific, Waltham, MA, United States), 100 IU/ml penicillin, and 100 μg/ml streptomycin (all from Sigma-Aldrich, Milan, Italy)] and then seeded in 75-cm^2 flasks at a density of 3 × 10^6 cells/flask. The cells were incubated at 37°C in a humidified atmosphere, 5% CO2/95% air. The culture medium was replaced after 24 h and again twice weekly until astrocytes were grown to form a monolayer firmly attached to the bottom of the flask (12 or 14 days after dissection). At cell confluence, flasks were vigorously shaken to separate astrocytes (which remained adherent in the bottom of the flasks) from microglia and oligodendrocytes (which floated on the supernatant) ([Tomasini et al., 2015]). Collected astrocytes were counted and then plated in poly-L-lysine at a density of 50,000 cells/well or 96-well plates black, clear bottom plates (Corning®; Sigma-Aldrich, Milan, Italy).
Subsequently 100 μl/well of the same buffer were added for 10 min. […] After placing cell culture and compound plates into the FlexStation II (Molecular Devices, Sunnyvale, CA, United States), the on-line additions were carried out in a volume of 50 μl /well and fluorescence changes were continuously measured for 2 min at 37°C.
as §1
For orientation: Calcium flux is commonly read through the fluorescence of an indicator in the cells.

Experiment [4] deals with T1, mGluR5. Further details: method as in Bradley et al., 2011. The conditions noted are these: ref Bradley et al., 2011; cited from earlier work.
The target of experiment [5] is T1, mGluR5. Further details: method as in Bradley et al., 2011. As to conditions: ref Bradley et al., 2011; cited from earlier work. The source holds these as a separate data set.
For experiment [6], the system named is mGluR5. Further details: method as in Nickols et al., 2016. As to conditions: ref Nickols et al., 2016; cited from earlier work.
Experiment [7] deals with mGluR5. Also on record: method as in Nickols et al., 2016. The conditions noted are these: ref Nickols et al., 2016; cited from earlier work. The source holds these as a separate data set.

T1 sequence (P31424 21-875 limits assumed): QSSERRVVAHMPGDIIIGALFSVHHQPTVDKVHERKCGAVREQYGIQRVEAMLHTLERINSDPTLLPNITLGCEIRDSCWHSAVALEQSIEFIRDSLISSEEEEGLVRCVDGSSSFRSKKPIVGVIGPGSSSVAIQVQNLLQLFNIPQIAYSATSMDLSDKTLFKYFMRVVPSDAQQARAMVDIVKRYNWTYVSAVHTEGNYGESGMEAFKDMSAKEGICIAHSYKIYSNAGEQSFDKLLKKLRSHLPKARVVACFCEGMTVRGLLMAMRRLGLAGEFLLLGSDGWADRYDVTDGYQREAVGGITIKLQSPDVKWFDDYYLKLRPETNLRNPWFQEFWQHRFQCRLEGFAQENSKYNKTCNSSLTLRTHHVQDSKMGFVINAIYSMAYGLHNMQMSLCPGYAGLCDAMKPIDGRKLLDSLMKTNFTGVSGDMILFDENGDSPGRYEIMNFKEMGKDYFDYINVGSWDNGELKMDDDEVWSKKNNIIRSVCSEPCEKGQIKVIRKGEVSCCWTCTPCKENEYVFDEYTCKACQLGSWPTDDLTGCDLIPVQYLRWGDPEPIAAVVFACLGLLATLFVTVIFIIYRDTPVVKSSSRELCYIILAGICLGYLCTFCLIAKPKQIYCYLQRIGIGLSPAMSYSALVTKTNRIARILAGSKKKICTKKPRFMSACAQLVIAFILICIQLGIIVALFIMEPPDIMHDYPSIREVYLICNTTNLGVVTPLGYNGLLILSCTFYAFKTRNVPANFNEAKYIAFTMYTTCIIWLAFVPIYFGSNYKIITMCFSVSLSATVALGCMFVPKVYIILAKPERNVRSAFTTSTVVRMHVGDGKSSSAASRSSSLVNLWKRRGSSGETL

Regarding `NC(C(=O)O)c1cc(O)ccc1Cl` (racemic) [CHPG, (RS)-2-Chloro-5-hydroxyphenylglycine], the Phosphatidylinositol turnover in experiment [1] (CHPG at the higher concentration tested (10 mM), rat hippocampal slices, p < 0.05) is on record as 127 ± 4 % of basal levels. The EC50 was 1000 ± 90 µM in experiment [2] (GET73 0 (absence), read-out: EC50 of CHPG, pCREB levels); 1000 ± 80 µM in experiment [2] (in the presence of GET73 0.1 nM, read-out: EC50 of CHPG, pCREB levels); 900 ± 40 µM in experiment [2] (in the presence of GET73 1 nM, read-out: EC50 of CHPG, pCREB levels); 1400 ± 120 µM in experiment [2] (in the presence of GET73 10 nM, read-out: EC50 of CHPG, pCREB levels); 5000 ± 290 µM in experiment [2] (in the presence of GET73 100 nM, read-out: EC50 of CHPG, pCREB levels); 1300 ± 90 µM in experiment [3] (read-out: EC50 of CHPG, intracellular calcium levels).
As to `N[C@@H](Cn1oc(=O)[nH]c1=O)C(=O)O` [L-quisqualate, (L)-(+)-α-Amino-3,5-dioxo-1,2,4-oxadiazolidine-2-propanoic acid], the half-maximal effective concentration (EC50) was 40 ± 2.37 µM in experiment [1] (GET73 0 (absence)); 33 ± 1.57 µM in experiment [1] (in the presence of GET73 0.1 nM); 40 ± 1.44 µM in experiment [1] (in the presence of GET73 1 nM); 110 ± 9.5 µM in experiment [1] (in the presence of GET73 10 nM); 200 ± 11.1 µM in experiment [1] (in the presence of GET73 100 nM); 320 ± 15.7 µM in experiment [1] (in the presence of GET73 1 μM). The EC50 in experiment [1] (in the presence of GET73 10 μM) stood at 200 ± 12.6 µM; in experiment [2] (GET73 0 (absence), read-out: EC50 of L-quisqualate, pCREB levels) it was 0.0088 ± 0.00068 µM; in experiment [2] (in the presence of GET73 0.1 nM, read-out: EC50 of L-quisqualate, pCREB levels), 0.009 ± 0.00091 µM; in experiment [2] (in the presence of GET73 1 nM, read-out: EC50 of L-quisqualate, pCREB levels), 0.0074 ± 0.00066 µM; in experiment [2] (in the presence of GET73 10 nM, read-out: EC50 of L-quisqualate, pCREB levels), 0.0085 ± 0.00052 µM; in experiment [2] (in the presence of GET73 100 nM, read-out: EC50 of L-quisqualate, pCREB levels), 0.011 ± 0.00096 µM. Further, the EC50 in experiment [2] (in the presence of GET73 1 μM, read-out: EC50 of L-quisqualate, pCREB levels) was 0.022 ± 0.00172 µM; in experiment [2] (in the presence of GET73 10 μM, read-out: EC50 of L-quisqualate, pCREB levels), 0.016 ± 0.00044 µM; in experiment [3] (read-out: EC50 of L-quisqualate, intracellular calcium levels), 0.0031 ± 0.00036 µM.
As to `COc1cccc(C#Cc2ccc(C)cn2)c1` [M-5MPEP], in experiment [4], the “Inhibition of agonist-stimulated Ca++ oscillations” value is “completely blocking”. In experiment [5], the “Inhibition of agonist-stimulated [3H]IP accumulation” value is “partially inhibiting”.
Turning to `CCN(CC)C(=O)c1ccc(C#Cc2cccc(F)c2)cn1` [VU0477573], the “Inhibition of agonist-mediated intracellular Ca++ release” value in experiment [6] is on record as “only partially inhibited”. Besides, the “Inhibition of ERK1/2 phosphorylation” value in experiment [7] is reported as “fully inhibited”.
